Earlier results in patent publication US20200396998A1, “HERBICIDAL COMBINATIONS” (UPL LTD, priority 2017, published 2020).

Test system: broadleaf weed
Conditions: saflufenacil alone; early season broadleaf weed control

SMILES: CC(C)N(C)S(=O)(=O)NC(=O)c1cc(-n2c(=O)cc(C(F)(F)F)n(C)c2=O)c(F)cc1Cl [Saflufenacil, N′{2-chloro-4-fluoro-5-[1,2,3,6-tetrahydro-3-methyl-2,6-dioxo-4-(trifluoromethyl)pyrimidin-1-yl]benzoyl}-N-isopropyl-N-methylsulfamide]
- Weed control efficacy over time, in words: reduced beyond 30 days after treatment
